# “And” between values parts separate entries of the source, which are not always exact repeats. Equal entries are not always repeated. “Also recorded” adds a separate entry of the source. Where two headings read alike, the source gives them in different places.
# Legend:
# [1] = Solubility of the API; format: physicochemical
# [2] = human, in vivo
# [3] = Plasma level in wild-type mice; format: in vivo; conditions: single i.v. 5 mg/kg, listed as Purinostat Mesylate
# Description: (§1) The mean residence times (MRT) were 6.00 ± 1.00 h, 24.8 ± 1.03 h, and 23.4 ± 3.59 h, respectively. […] However, in Ighmyc mice, the plasma drug concentration after the same duration was 7.11 ± 3.15 ng/mL. […] The pharmacokinetic characteristics support the notion that spaced dosing of the drug can still maintain favorable pharmacodynamic outcomes.
# [4] = test system: HDAC I/IIb; parameters: method as in PMID 27186676, PMID 31439580; conditions: range over isoforms; read-out: IC50 against HDAC I/IIb; cited from earlier work
# [5] = test system: solid tumor cells; test: Proliferation, MTT or Alamar Blue; format: cell-based; conditions: Homo sapiens
# [6] = Pharmacokinetics in plasma and tumor, HCT116 tumor-bearing mice; format: in vivo, nude mice
# Description: The mean residence time (MRT) was 0.51 ± 0.06 hours in plasma and 39.48 ± 4.74 hours in tumor.
# [7] = molecular target: T1, CYP2D6 (Homo sapiens, UniProt P10635); test: CYP inhibition, human liver microsomes; format: in vitro ADME
# T1 construct: human liver microsomal cytochrome P450 isoenzymes; from tissue; host or cells: human liver microsomes
# T1 sequence (P10635 whole entry): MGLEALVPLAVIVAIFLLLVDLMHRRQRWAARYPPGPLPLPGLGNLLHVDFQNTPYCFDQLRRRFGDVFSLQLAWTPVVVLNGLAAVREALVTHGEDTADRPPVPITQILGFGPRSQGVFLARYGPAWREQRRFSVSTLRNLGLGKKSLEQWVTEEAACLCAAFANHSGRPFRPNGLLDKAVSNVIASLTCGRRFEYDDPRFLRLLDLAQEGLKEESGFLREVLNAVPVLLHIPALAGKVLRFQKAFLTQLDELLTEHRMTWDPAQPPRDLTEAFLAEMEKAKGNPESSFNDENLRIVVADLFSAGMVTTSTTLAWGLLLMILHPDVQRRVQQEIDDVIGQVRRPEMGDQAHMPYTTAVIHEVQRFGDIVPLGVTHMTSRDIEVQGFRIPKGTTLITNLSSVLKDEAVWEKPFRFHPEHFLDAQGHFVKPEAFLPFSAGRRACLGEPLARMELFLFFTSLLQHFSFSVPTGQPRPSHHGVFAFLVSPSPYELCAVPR
# [8] = molecular target: T2, CYP3A4 (Homo sapiens, UniProt P08684); test: CYP inhibition, human liver microsomes; format: in vitro ADME
# T2 construct: human liver microsomal cytochrome P450 isoenzymes; from tissue; host or cells: human liver microsomes
# T2 sequence (P08684 whole entry): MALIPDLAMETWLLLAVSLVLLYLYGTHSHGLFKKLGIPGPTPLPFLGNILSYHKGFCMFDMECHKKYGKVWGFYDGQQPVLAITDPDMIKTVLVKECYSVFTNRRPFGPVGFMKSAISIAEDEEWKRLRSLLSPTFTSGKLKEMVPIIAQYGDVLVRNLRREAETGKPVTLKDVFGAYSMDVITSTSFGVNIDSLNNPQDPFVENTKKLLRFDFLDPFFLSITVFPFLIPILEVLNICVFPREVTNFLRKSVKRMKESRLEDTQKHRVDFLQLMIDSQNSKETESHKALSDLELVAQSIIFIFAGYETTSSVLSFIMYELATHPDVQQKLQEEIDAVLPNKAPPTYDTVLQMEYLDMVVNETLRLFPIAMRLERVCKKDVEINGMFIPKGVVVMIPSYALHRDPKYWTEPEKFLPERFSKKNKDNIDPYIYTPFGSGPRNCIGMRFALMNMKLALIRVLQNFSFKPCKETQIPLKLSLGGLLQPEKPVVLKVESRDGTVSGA
# [9] = Acute toxicity test, intravenous; format: in vivo, rats
# Description: The experimental design included low, medium, and high doses of 50, 100, and 200 mg/kg administered intravenously. In the medium and high-dose groups, symptoms observed included ear reddening, reduced activity, prone posture, rapid breathing, and deep gasping; in the high-dose group, additional signs included deep gasping, arched back, and weight loss.
# [10] = test system: bone destruction; test: Micro-CT of femur, 5TMM model; format: in vivo, C57BL/KawRij mice; conditions: 10 mg/kg for 4 weeks
# Description: The cMYC-KRAS12V-induced plasmacytoma mouse model in BALB/c (GemPharmatech Co., Ltd., Nanjing, China) was established as previously described.[33] On day 28 or 35 post bone marrow transplantation, recipients received various treatments. The 5TMM mouse model was established as previously described.[55] The 5TGM1-luc cells were intravenously injected into 6-week-old C57BL/KawRij mice (Harlan Co. Netherlands) with 2 × 10^6 cells per mouse. After three weeks, mice were treated with vehicle or PM 10 mg/kg. Serum Ca^2+ levels were monitored weekly for three weeks after the start of administration. Kaplan-Meier survival curves were generated for each treatment group. Additionally, the 5TMM mouse model studying PM’s effects on immune response and bone destruction involved randomizing mice into vehicle and PM (10 mg/kg) groups one week after inoculation. T cell subsets were analyzed by flow cytometry 24 h after a single dose and 1 month after vehicle or PM treatment. The mice were sacrificed after 1 month of treatment, and the bone destruction was detected by Micro-CT.
# [11] = test system: c-MYC/KRAS12V transformed BaF3 cells; test: Cell viability CCK8; format: cell-based
# Description: PM, panobinostat, Pom and DXM were dissolved in DMSO and stored at -20°C freezer. Cells were seeded at a density of 1.0-3.0 × 10^4 cells/well/100 μL in 96-well plates. After overnight incubation, cells were treated with the drug-containing culture medium for 24, 48, or 72 hours, and cell viability was measured using CCK8 (Oriscience, Chengdu, China) at the indicated time points with Biotek Cytation 3 at a wavelength of 450 nm. The IC50 values were calculated using GraphPad Prism 9.4.1, and Calcusyn 2.0 software was employed to calculate the CI values.
# Mice were weighed every two days. All data are represented as mean ± SEM.
# [12] = molecular target: HDAC3 (Homo sapiens, UniProt O15379); test: HDAC enzyme activity in vitro; format: biochemical
# Sequence of HDAC3 (O15379 whole entry): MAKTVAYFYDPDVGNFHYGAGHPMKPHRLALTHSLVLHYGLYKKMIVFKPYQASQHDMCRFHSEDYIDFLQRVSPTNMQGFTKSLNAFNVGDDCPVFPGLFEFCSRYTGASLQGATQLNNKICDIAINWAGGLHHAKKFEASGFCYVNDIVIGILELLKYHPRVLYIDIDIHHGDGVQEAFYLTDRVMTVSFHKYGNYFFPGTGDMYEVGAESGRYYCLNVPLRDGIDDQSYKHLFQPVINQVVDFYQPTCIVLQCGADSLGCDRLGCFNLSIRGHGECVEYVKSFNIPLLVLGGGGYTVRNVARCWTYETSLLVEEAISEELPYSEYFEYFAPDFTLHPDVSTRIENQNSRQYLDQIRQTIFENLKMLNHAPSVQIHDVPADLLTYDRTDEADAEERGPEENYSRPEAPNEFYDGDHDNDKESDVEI
# Sequence of HDAC3 (Q9Y618 395-489 partner limits assumed): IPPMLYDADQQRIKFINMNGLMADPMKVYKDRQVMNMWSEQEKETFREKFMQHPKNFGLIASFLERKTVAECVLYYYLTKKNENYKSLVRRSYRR
# [13] = test system: hematological tumor cells; test: Proliferation, MTT or Alamar Blue; format: cell-based; conditions: Homo sapiens
# [14] = Pharmacokinetics and tissue distribution in Ighmyc mice; format: in vivo
# Source text: In B cell-related tumors, the mechanism of disease often involves the translocation of the MYC oncogene to the immunoglobulin promoter region, leading to its hyperactivation. The translocation of the MYC gene to the IGH enhancer (t(8;14) (q24;q32)) is a molecular hallmark of Burkitt lymphoma. The Ighmyc (Eμ-myc) mouse model successfully mimics this pathogenic mechanism by translocating the MYC oncogene to the immunoglobulin μ enhancer. […] We isolated bone marrow and enlarged spleen from diseased Ighmyc mice and transplanted them into normal C57 mice via tail vein injection to induce a primary B cell lymphoma model. This study aims to investigate the pharmacokinetic characteristics and tissue distribution of Purinostat Mesylate in plasma and target organs in the context of primary B cell lymphoma.
# as §1
structure (smiles),measurement,setting,value
"CN(Cc1nc2c(N3CCOCC3)nc(-c3ccc(N)cc3)nc2n1C)c1ncc(C(=O)NO)cn1.CS(=O)(=O)O [PM, 2-(((2-(4-Aminophenyl)-9-methyl-6-(4-morpholinyl)-9H-purine-8-yl)methyl)methylamino)-N-hydroxy-5-pyrimidine-carboxamide Mesylate]",Solubility,[1]; 0.1 mol/L hydrochloric acid solution,practically insoluble
same,Solubility,[1]; 0.1 mol/L sodium hydroxide solution,very slightly soluble
same,Solubility,[1]; dimethyl sulfoxide,soluble
same,Solubility,[1]; dimethylformamide,slightly soluble
same,Solubility,"[1]; ethanol, ethyl acetate, or chloroform",practically insoluble
same,Solubility,[1]; methanol,very slightly soluble
same,QT interval prolongation on ECG,[2],10(34.5) n (%)
same,cardiac toxic adverse events,[2],no grade 3 or higher events occurring
same,"transient QTc interval prolongation, grade",[2],≤ 2 grade
same,plasma drug concentration at 24 hours,[3],no drug concentration was detected in the plasma at 24 hours; also recorded: no drug concentration was detectable in plasma after 24 hours; also recorded: undetectable
same,IC50,[4],0.00081 to 0.0115 µM
same,IC50,[5]; all lines,< 0.1 µM
same,IC50,[5]; most tumor cell lines,< 0.05 µM
same,tumor AUC(0-96h),[6]; multiple i.v. 10 mg/kg,9068 ± 213 µg·h/L
same,Cmax,"[6]; nude, mouse, plasma, iv, 10 mg/kg, single i.v. 10 mg/kg, read-out: Cmax in plasma",442 ± 67.2 ng/mL
same,MRT,"[6]; nude, mouse, plasma, iv, 10 mg/kg, single i.v. 10 mg/kg, read-out: MRT in plasma",0.51 ± 0.06 h
same,half-life,"[6]; nude, mouse, plasma, iv, 10 mg/kg, single i.v. 10 mg/kg, read-out: elimination half-life (T1/2) in plasma (converted)",1.21 h
same,AUC(0-t),"[6]; nude, mouse, plasma, iv, single i.v. 10 mg/kg, read-out: plasma AUC(0-8h)",174 ± 25.2 ng·h/mL
same,Kp,"[6]; nude, mouse, tumor and plasma, intravenous, 10 mg/kg, single dose, read-out: tumor AUC0-t / plasma AUC0-t ratio",74.4
same,concentration at 96 h,"[6]; nude, mouse, tumor, intravenous, 10 mg/kg, single dose, read-out: drug concentration in tumor tissue after 96 hours",69 ng/mL and ~140 nM
same,Cmax,"[6]; nude, mouse, tumor, iv, 10 mg/kg, multiple i.v. 10 mg/kg, read-out: Cmax in tumor",283 ± 64.8 ng/mL
same,MRT,"[6]; nude, mouse, tumor, iv, 10 mg/kg, multiple i.v. 10 mg/kg, read-out: MRT in tumor",34.7 ± 1.86 h
same,half-life,"[6]; nude, mouse, tumor, iv, 10 mg/kg, multiple i.v. 10 mg/kg, read-out: elimination half-life (T1/2) in tumor (converted)",68.7 ± 54.5 h
same,Cmax,"[6]; nude, mouse, tumor, iv, 10 mg/kg, single i.v. 10 mg/kg, read-out: Cmax in tumor",1040 ± 167 ng/mL
same,MRT,"[6]; nude, mouse, tumor, iv, 10 mg/kg, single i.v. 10 mg/kg, read-out: MRT in tumor",39.5 ± 4.74 h
same,half-life,"[6]; nude, mouse, tumor, iv, 10 mg/kg, single i.v. 10 mg/kg, read-out: elimination half-life (T1/2) in tumor (converted)",45.3 h
same,tumor AUC(0-96h),[6]; single i.v. 10 mg/kg,12922 ± 498 µg/Lh
same,IC50,[7],> 10 µM
same,IC50,[8]; midazolam as the substrate,> 10 µM
same,IC50,[8]; testosterone as the substrate,1.13 µM
same,MTD,"[9]; both sexes, rat, in vivo, iv, single i.v., read-out: maximum tolerated dose (MTD)",100 mg/kg
same,mortality,"[9]; high dose 200 mg/kg, days 1 to 6",Six out of ten
same,bone structure of femur (Micro-CT),[10],effectively prevented bone destruction and trabecular changes on the femoral surface
same,superior antiproliferation activity compared to panobinostat,[11],~4 fold
same,PAD,Mouse,2.5 mg/kg
same,"MRSD from MTD, most sensitive species","beagle, dog",3.33 mg/m²
same,equivalent human dose of exposure at dog HNSTD,"beagle, dog",36.88 mg/m²
same,IC50,[12],0.0017 µM
same,IC50,"[13]; read-out: IC50, hematological tumor cells",< 0.01 µM
same,IC50,"[13]; some cell lines, read-out: IC50, hematological tumor cell lines",< 0.001 µM
same,abnormal B220+/IgM- cell population in peripheral blood,"[14]; 48 hours after single i.v. 5 mg/kg, untreated 48.9%",about 18.8%
same,AUC(0-t),"[14]; Ighmyc (Eμ-myc), mouse, lymph node, iv, single i.v. 5 mg/kg, read-out: lymph node AUC(0-72h)",16100 ± 2040 ng·h/mL
same,Cmax,"[14]; Ighmyc (Eμ-myc), mouse, lymph nodes, iv, single i.v. 5 mg/kg, read-out: Cmax in lymph nodes",578 ± 153 ng/mL
same,MRT,"[14]; Ighmyc (Eμ-myc), mouse, lymph nodes, iv, single i.v. 5 mg/kg, read-out: MRT in lymph nodes",23.4 ± 3.59 h
same,half-life,"[14]; Ighmyc (Eμ-myc), mouse, lymph nodes, iv, single i.v. 5 mg/kg, read-out: T1/2 in lymph nodes (converted)",21.9 ± 10.2 h
same,concentration at 48 h,"[14]; Ighmyc (Eμ-myc), mouse, lymph nodes, iv, single i.v. 5 mg/kg, read-out: concentration in lymph nodes at 48 hours",178 ± 46 ng/mL
same,Cmax,"[14]; Ighmyc (Eμ-myc), mouse, plasma, iv, single i.v. 5 mg/kg, read-out: Cmax in plasma",304 ± 277 ng/mL
same,MRT,"[14]; Ighmyc (Eμ-myc), mouse, plasma, iv, single i.v. 5 mg/kg, read-out: MRT in plasma",6 ± 1 h
same,half-life,"[14]; Ighmyc (Eμ-myc), mouse, plasma, iv, single i.v. 5 mg/kg, read-out: T1/2 in plasma (converted)",12.2 ± 2.1 h
same,AUC(0-t),"[14]; Ighmyc (Eμ-myc), mouse, plasma, iv, single i.v. 5 mg/kg, read-out: plasma AUC(0-48h)",875 ± 437 ng·h/mL
same,concentration at 24 h,"[14]; Ighmyc (Eμ-myc), mouse, plasma, iv, single i.v. 5 mg/kg, read-out: plasma drug concentration at 24 hours",7.11 ± 3.15 ng/mL
same,Cmax,"[14]; Ighmyc (Eμ-myc), mouse, spleen, iv, single i.v. 5 mg/kg, read-out: Cmax in spleen",410 ± 69.9 ng/mL
same,MRT,"[14]; Ighmyc (Eμ-myc), mouse, spleen, iv, single i.v. 5 mg/kg, read-out: MRT in spleen",24.8 ± 1.03 h
same,half-life,"[14]; Ighmyc (Eμ-myc), mouse, spleen, iv, single i.v. 5 mg/kg, read-out: T1/2 in spleen (converted)",20.8 ± 7.94 h
same,concentration at 48 h,"[14]; Ighmyc (Eμ-myc), mouse, spleen, iv, single i.v. 5 mg/kg, read-out: concentration in spleen at 48 hours",134 ± 18.5 ng/mL
same,AUC(0-t),"[14]; Ighmyc (Eμ-myc), mouse, spleen, iv, single i.v. 5 mg/kg, read-out: spleen AUC(0-72h)",12500 ± 244 ng·h/mL
same,plasma drug concentration at 24 hours,"[14]; single i.v. 5 mg/kg, listed as Purinostat Mesylate, 5 mg/kg",7.11 ng/mL

# Reference: publication PMC12198407, “Preclinical and first-in-human of purinostat mesylate, a novel selective HDAC I/IIb inhibitor, in relapsed/refractory multiple myeloma and lymphoma” (Signal Transduction and Targeted Therapy, 2025)
